Here are results for 16 compounds from ChEMBL document CHEMBL1833915, “Discovery of potent, orally bioavailable phthalazinone bradykinin B1 receptor antagonists” (J Med Chem, 2011).

For series [1], the target named is T1, B1 bradykinin receptor (Oryctolagus cuniculus, UniProt P48748).
T1 sequence (P48748 whole entry): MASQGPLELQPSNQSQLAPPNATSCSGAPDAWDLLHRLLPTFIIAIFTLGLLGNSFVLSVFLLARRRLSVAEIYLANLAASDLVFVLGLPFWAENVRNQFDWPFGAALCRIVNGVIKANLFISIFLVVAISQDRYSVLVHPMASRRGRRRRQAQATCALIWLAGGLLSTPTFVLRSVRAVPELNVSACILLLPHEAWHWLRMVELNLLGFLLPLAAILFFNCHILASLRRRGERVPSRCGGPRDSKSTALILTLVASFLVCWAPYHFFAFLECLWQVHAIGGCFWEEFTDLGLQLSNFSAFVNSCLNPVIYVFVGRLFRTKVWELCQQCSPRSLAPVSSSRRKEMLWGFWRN
Description: Inhibition of rabbit B1 receptor by cellular calcium flux assay. The series is classed as functional. Background: Calcium assays in cells follow changes in intracellular calcium, usually with a dye or a luminescent sensor.

The nature of series [2]: Oral bioavailability in Sprague-Dawley rat. Conditions: in vivo. The series is classed as ADME, organism-based.
The nature of series [3]: Clearance in Sprague-Dawley rat. It counts as ADME, organism-based. Conditions: in vivo.
Series [4] concerns the target T2, B1 bradykinin receptor (Homo sapiens, UniProt P46663).
T2 sequence (P46663 whole entry): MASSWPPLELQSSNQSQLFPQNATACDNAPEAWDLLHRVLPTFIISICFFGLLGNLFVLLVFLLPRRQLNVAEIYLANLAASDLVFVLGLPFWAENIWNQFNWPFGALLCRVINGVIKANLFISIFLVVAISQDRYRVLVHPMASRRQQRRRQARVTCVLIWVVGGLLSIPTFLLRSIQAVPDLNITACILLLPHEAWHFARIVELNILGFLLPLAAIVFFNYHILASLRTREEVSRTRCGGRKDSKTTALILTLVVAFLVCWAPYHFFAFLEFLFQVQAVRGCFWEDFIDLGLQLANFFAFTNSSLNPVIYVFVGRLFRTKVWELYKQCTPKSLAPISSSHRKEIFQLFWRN
Description: Antagonist activity at human B1 receptor. It counts as functional.

Series [5] has as its target Sodium channel protein type 5 subunit alpha (Homo sapiens, UniProt Q14524). Put plainly: Activity at Nav1.5 ion channel at 1 uM.
The target in series [6] is Voltage-gated inwardly rectifying potassium channel KCNH2 (Homo sapiens, UniProt Q12809). Put plainly: Inhibition of human hERG at 1 uM. In general terms: The hERG channel carries a current that helps repolarise heart muscle cells.
The target in series [7] is Potassium voltage-gated channel subfamily A member 5 (Homo sapiens) (UniProt P22460). Put plainly: Activity at Kv1.5 ion channel at 1 uM.
Series [8] deals with T2, B1 bradykinin receptor. Put plainly: Antagonist activity at human B1 receptor by cell-based assay. It counts as functional.
Series [9] is described as follows: Oral bioavailability in Sprague-Dawley rat at 5 mg/kg. The series is classed as ADME, organism-based. Conditions: in vivo.
Series [10] is described as follows: Clearance in Sprague-Dawley rat at 2 mg/kg, iv. The series is classed as ADME, organism-based. More on the design: dose 2 mg/kg, route intravenous. Conditions: in vivo.
Series [11] can be described thus: Half life in Sprague-Dawley rat at 2 mg/kg, iv. The series is classed as ADME, organism-based. On the set-up: dose 2 mg/kg, route intravenous. The conditions noted are these: in vivo.
Series [12] is described as follows: Volume of distribution at steady state in Sprague-Dawley rat at 2 mg/kg, iv. Conditions: in vivo, read-out: Vdss. The series is classed as ADME, organism-based. More on the design: dose 2 mg/kg, route intravenous.
In series [13] the target is T2, B1 bradykinin receptor. Put plainly: Antagonist activity at human B1 receptor expressed in CHO cells by aequorin-based calcium flux assay. The series is classed as functional, cell-based.
In series [14] the test system is Oryctolagus cuniculus. Description: Antihypertensive activity in sc dosed rabbit assessed as reduction in DAK-induced hypotension.
Series [15] has as its system Oryctolagus cuniculus. Put plainly: […] activity in LPS treated rabbit assessed as reversal of DAK-induced hypotension at 0.03 to 3 mg/kg, sc. It counts as functional, organism-based.
A short description of series [16]: Fraction unbound in rabbit plasma. The series is classed as ADME, cell-free, Oryctolagus cuniculus.
The subject of series [17] is Oryctolagus cuniculus. Description: […] activity in LPS treated rabbit assessed as reversal of DAK-induced hypotension at 0.003 to 1 mg/kg, sc. It counts as functional, organism-based.
Series [18] can be described thus: Oral bioavailability in dog at 1 mg/kg. The series is classed as ADME, organism-based, Canis lupus familiaris. Conditions: in vivo.
The nature of series [19]: Half life in dog at 1 mg/kg, iv. It counts as ADME, organism-based, Canis lupus familiaris. More on the design: dose 1 mg/kg, route intravenous. Conditions: in vivo.
Series [20] in a line: Clearance in dog at 1 mg/kg, iv. Conditions: in vivo. More on the design: dose 1 mg/kg, route intravenous. The series is classed as ADME, organism-based, Canis lupus familiaris.
The nature of series [21]: Volume of distribution at steady state in dog at 1 mg/kg, iv. The series is classed as ADME, organism-based, Canis lupus familiaris. More on the design: dose 1 mg/kg, route intravenous. Conditions: in vivo, read-out: Vdss.

pIC50, pKi: −log10 of the molar value. Calls of active or inactive are those of the source. The rule behind the calls is not given here.

Sequence of Voltage-gated inwardly rectifying potassium channel KCNH2 (Q12809 whole entry): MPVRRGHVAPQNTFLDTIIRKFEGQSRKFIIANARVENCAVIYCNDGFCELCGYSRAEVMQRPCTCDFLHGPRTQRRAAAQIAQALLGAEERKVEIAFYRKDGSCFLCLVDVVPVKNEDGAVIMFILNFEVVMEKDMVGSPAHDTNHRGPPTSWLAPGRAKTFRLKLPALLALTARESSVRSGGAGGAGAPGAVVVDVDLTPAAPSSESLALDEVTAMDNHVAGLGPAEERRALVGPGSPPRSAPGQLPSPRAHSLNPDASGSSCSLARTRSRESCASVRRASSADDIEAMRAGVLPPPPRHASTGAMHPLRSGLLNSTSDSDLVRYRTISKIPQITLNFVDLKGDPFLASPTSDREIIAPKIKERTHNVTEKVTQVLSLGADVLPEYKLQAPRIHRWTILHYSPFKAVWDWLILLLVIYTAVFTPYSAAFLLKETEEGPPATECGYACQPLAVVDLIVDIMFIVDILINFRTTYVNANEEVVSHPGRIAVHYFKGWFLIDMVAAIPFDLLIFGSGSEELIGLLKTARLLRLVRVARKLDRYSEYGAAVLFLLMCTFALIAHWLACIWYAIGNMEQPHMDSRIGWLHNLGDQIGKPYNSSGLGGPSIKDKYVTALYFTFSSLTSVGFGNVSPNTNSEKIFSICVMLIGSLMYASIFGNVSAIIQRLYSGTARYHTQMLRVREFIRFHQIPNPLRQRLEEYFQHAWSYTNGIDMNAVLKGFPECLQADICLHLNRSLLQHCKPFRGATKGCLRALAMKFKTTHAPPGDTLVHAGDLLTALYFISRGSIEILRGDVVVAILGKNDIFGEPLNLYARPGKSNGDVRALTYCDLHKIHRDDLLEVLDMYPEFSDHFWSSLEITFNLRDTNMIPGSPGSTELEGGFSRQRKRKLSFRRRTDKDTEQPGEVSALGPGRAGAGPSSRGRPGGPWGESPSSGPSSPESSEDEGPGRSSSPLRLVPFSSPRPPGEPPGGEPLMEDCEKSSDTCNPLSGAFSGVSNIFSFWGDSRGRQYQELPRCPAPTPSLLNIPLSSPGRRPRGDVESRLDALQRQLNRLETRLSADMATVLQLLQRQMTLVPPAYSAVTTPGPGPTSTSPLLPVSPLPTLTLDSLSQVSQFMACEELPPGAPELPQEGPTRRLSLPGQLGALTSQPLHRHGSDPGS
Sequence of Potassium voltage-gated channel subfamily A member 5 (Homo sapiens) (P22460 whole entry): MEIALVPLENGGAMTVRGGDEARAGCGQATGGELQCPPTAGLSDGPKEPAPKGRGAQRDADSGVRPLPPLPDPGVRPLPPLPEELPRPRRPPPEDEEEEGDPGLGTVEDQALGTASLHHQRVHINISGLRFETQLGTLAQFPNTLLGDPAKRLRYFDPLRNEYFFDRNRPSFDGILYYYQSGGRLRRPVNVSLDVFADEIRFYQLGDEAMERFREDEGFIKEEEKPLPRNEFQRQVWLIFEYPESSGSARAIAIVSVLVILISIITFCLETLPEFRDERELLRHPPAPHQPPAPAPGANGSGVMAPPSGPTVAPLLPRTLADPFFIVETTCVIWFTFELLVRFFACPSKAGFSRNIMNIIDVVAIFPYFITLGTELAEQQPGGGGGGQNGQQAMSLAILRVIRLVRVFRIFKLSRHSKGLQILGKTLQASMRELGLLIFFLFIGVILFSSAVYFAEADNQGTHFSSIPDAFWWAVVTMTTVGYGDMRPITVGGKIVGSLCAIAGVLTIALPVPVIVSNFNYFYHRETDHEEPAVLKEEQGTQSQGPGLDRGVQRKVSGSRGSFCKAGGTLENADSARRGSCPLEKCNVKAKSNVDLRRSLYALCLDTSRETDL
Sequence of Sodium channel protein type 5 subunit alpha (Q14524 whole entry): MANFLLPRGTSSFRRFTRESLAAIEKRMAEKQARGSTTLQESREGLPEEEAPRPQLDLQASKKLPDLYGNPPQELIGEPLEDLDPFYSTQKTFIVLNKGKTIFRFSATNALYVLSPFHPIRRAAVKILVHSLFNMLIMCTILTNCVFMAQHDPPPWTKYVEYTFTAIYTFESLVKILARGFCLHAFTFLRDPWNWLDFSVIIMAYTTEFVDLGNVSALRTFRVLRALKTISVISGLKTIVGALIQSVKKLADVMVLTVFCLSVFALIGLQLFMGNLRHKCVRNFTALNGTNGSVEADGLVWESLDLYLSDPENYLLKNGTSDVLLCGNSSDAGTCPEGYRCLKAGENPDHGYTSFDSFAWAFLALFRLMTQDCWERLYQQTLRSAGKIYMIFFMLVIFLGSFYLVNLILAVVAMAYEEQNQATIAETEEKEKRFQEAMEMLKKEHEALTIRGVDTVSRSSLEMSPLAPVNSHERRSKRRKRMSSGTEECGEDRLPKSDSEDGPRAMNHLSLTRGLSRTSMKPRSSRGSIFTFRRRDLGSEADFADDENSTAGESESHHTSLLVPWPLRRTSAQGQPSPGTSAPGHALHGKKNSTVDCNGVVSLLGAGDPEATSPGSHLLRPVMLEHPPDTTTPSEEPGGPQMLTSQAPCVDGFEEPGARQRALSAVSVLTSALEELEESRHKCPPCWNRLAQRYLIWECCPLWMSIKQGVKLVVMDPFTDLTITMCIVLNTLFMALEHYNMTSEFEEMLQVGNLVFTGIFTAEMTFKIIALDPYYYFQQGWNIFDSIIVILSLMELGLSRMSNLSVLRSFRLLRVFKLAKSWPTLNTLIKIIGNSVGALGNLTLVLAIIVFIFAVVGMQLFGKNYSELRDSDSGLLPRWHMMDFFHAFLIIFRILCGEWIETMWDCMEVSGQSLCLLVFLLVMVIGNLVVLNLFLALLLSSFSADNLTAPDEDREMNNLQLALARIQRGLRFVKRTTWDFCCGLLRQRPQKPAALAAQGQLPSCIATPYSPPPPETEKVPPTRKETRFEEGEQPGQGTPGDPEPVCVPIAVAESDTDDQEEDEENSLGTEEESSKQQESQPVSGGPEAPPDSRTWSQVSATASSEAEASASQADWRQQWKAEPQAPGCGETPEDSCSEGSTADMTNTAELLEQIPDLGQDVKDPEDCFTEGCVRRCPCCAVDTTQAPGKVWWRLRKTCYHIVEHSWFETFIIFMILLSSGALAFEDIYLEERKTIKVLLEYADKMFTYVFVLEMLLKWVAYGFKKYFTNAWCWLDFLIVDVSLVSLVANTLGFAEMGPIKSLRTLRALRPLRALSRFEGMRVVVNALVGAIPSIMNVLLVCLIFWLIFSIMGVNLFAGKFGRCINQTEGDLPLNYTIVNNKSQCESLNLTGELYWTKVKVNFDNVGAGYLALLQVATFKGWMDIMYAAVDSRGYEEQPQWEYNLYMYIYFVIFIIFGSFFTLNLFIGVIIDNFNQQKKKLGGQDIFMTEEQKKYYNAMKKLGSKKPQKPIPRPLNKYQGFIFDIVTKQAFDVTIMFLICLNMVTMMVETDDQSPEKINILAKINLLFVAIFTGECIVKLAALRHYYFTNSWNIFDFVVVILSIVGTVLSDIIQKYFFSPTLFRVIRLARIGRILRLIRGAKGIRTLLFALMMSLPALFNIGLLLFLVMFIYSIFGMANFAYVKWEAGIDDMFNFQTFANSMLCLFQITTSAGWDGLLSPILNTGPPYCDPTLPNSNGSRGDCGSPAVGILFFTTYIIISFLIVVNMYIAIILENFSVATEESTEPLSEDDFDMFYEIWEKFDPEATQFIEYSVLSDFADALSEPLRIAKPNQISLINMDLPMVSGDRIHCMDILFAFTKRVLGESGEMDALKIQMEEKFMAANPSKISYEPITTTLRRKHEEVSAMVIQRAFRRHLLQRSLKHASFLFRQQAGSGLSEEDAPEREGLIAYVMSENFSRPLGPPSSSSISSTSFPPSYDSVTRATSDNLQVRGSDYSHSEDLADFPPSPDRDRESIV

As usually defined, the pIC50 is the IC50 on a negative log10 scale, so that one unit is a factor of ten. As a reminder, the bioavailability is dose-corrected exposure relative to a reference, in per cent. A high value points to good availability. In general, clearance refers to the volume of plasma or blood freed of the substance per unit of time. A lower clearance goes with a low capacity for elimination. In the case of `Cc1ccc(S(=O)(=O)N2CCNC(=O)[C@H]2CC(=O)N[C@@H]2CCCc3cc(CN4CCCCC4)ccc32)cc1`, the pIC50 on B1 bradykinin receptor [1] was 8.39. In series [2], this compound had a bioavailability of 6%. This compound showed a clearance in series [3] of 123 mL/min/kg.

As usually defined, the pKi is −log10 of the Ki, conventionally taken in molar units. In turn, `Cc1nn(-c2ccc(C(=O)N[C@@H]3CCCc4cc(CN5CCCCC5)ccc43)cc2)c(=O)c2c(F)cccc12` had a pKi at B1 bradykinin receptor [4] of 8.72.

For the compound `Cc1nn(-c2cccc(C(=O)N[C@@H]3CCCc4cc(CN5CCCCC5)ccc43)c2)c(=O)c2ccccc12`, the pKi on B1 bradykinin receptor [4] was 5.20.

As for `Cc1nn(-c2ccc(C(=O)N[C@@H]3CCCc4cc(CN5CCCCC5)ccc43)cn2)c(=O)c2c(Cl)cccc12`, the Activity result in [5] and in series [6] was “Not Active” each time. Further, the outcome in series [7] was inactive.

For the compound `O=C(CCCCC(=O)c1ccccc1)N[C@@H]1CCCc2cc(CN3CCCCC3)ccc21`, the pIC50 on B1 bradykinin receptor [8] was 5.86. The same compound showed a pKi on B1 bradykinin receptor [4] of 5.77.

Usually half-life stands for how long it takes for the measured level to halve. Higher therefore signals slow decline. The compound `Cc1nn(-c2ccc(C(=O)N[C@@H]3CCCc4cc(CN5CCCCC5)ccc43)cc2)c(=O)c2ccccc12` came in with a bioavailability in series [9] of 51%. This compound gave a clearance in series [10] of 15 mL/min/kg. Also, the half-life in series [11] is 6.1 h. Besides, the pKi at B1 bradykinin receptor [4] was 7.46. The Vd in series [12] turned out to be 8.09 L/kg.

With `Cc1nn(-c2ccc(C(=O)N[C@@H]3CCCc4cc(CN5CCCCC5)ccc43)cn2)c(=O)c2c(F)ccc(F)c12`, the figures for the pIC50 at B1 bradykinin receptor [1] and at B1 bradykinin receptor [13] were 8.66 and 9.52, respectively. The same compound had a pKi at B1 bradykinin receptor [4] of 9.22.

At B1 bradykinin receptor [4], `O=C(Cc1ccc(C(=O)N[C@@H]2CCCc3cc(CN4CCCCC4)ccc32)cc1)c1ccccc1` showed a pKi of 6.53.

With `Cc1nn(-c2ccc(C(=O)N[C@@H]3CCCc4cc(CN5CCCCC5)ccc43)cc2)c(=O)c2c(F)ccc(F)c12`, the pKi on B1 bradykinin receptor [4] is 8.46.

For the compound `O=C(N[C@@H]1CCCc2cc(CN3CCCCC3)ccc21)c1ccc(-n2nc(-c3ccccc3)c3ccccc3c2=O)cc1`, on B1 bradykinin receptor [4], the pKi was 6.38.

One may read the fraction unbound as the share of the substance not bound to proteins or other matrix. High values mean much free substance, low ones little free substance. With `Cc1nn(-c2ccc(C(=O)N[C@@H]3CCCc4cc(CN5CCCCC5)ccc43)cn2)c(=O)c2c(F)cccc12`, the pIC50 is 9.22 on B1 bradykinin receptor [1], 8.60 in the series with Oryctolagus cuniculus [14] and 10.05 at B1 bradykinin receptor [13]. The compound further registered a bioavailability in series [9] of 61%. For the same compound, in series [10], the clearance was 23.5 mL/min/kg. The compound further showed a half-life in series [11] of 3.3 h. The result in the series on Oryctolagus cuniculus [15] and with Oryctolagus cuniculus [17] was Active. In series [16], this compound yielded a fraction unbound of 0.24. The compound also gave a pKi on B1 bradykinin receptor [4] of 9.22. In addition, the Vd in series [12] was determined as 6.45 L/kg. Besides, the Activity entry in series [5] and in series [6] was “Not Active” in each case. Also, the result in series [7] was inactive.

Take `Cc1nn(-c2ccc(C(=O)N[C@@H]3CCCc4cc(CN5CCCCC5)ccc43)cc2)c(=O)c2c(Cl)cccc12`: the pIC50 was 7.67 at B1 bradykinin receptor [1] and 9.00 on B1 bradykinin receptor [13]. Also, the bioavailability in [9] is 90%; in [18], 60%. For the same compound, the clearance in series [10] is 11.2 mL/min/kg; in series [20], 19 mL/min/kg. In addition, the half-life in series [11] is 10.4 h; in series [19], 8.9 h. Also, at B1 bradykinin receptor [4], the pKi was 9.05. In addition, the Vd in series [12] stood at 7.85 L/kg; in series [21] it was 10.6 L/kg.

In turn, `O=C(N[C@@H]1CCCc2cc(CN3CCCCC3)ccc21)c1ccc(-n2cnc3ccccc3c2=O)cc1` gave a pKi at B1 bradykinin receptor [4] of 6.21.

`CCc1nn(-c2ccc(C(=O)N[C@@H]3CCCc4cc(CN5CCCCC5)ccc43)cc2)c(=O)c2ccccc12` had a pKi at B1 bradykinin receptor [4] of 7.54.

The compound `O=C(N[C@@H]1CCCc2cc(CN3CCCCC3)ccc21)c1cccc(-c2coc3ccccc3c2=O)c1` had a pKi at B1 bradykinin receptor [4] of 7.19.

Turning to `O=C(N[C@@H]1CCCc2cc(CN3CCCCC3)ccc21)c1cccc(-n2cnc3ccccc3c2=O)c1`, the pKi on B1 bradykinin receptor [4] was < 5.00.
